From patent US20240238422A1 (Osprey Biopharmaceuticals, Inc., priority 2021, published 2024)

Columns and labels:
[1] = system: Siglec-2 (CD22); settings: SAM for Siglec-2 (CD22); value of the cited reference; cited from earlier work
[2] = molecular target: T1, human CD22 (Homo sapiens, UniProt P20273); assay: SPR binding of synthetic Siglec ligands to human CD22 ectodomain (Biacore 8K+); settings: for Kd: SPR, alkyne-terminating precursors of the PFP linkers, read-out: Human Siglec-2 Binding Affinity; for Human Siglec-2 Binding Affinity: grade in words for the conjugatable Siglec ligand-linker
T1 construct: Fc (human CD22-Fc fusion); purchased R&D Systems AV11968-050
Experimental: (§1) The following ligands were evaluated for mouse and human CD22 binding: 1) BPC-Neu5Gc PEG (Cpd. No. 26463), 2) BPC-Neu5Gc GAL (Cpd. No. 26339), 3) MPB-Neu5Ac PEG (Cpd. No. 26334), 4) MPB-Neu5Ac GAL (Cpd. No. 26409), 5) Neu5Gc PEG (Cpd. No. 26591). All tested compounds are alkyne-terminating precursors of PFP-terminating, conjugatable Siglec Linker structures used in conjugates in the following examples.
(§2) Binding assays for synthetic CD22 ligand binding to CD22 receptor ectodomain were run on a Biacore 8K+ instrument (Cytiva). Surface preparation for CD22 conjugates binding to human or mouse CD22 protein consisted of two steps, covalent immobilization of streptavidin followed by capture of Avi-tagged and biotinylated human CD22-Fc fusion (R&D Systems, Cat #AV11968-050) and a mono-Fc fusion of mouse CD22. Using standard amine coupling protocols, Streptavidin (Invitrogen, Cat #: 434301) was immobilized to a Cytiva CM5 chip (Cytiva, Cat #BR100530) by injecting at 100 ug/mL in Sodium Acetate, pH 4.5 (Cytiva, Cat #BR100350) on both flow cells, yielding a final response of 2500 RU. Capture of biotinylated mono Fc human CD22 was performed on channels 1-4 and mouse CD22 on channels 5-8 on the active flow cell (2) and the reference flow cell (1) was kept as unmodified streptavidin to account for any non-specific binding. Human CD22 or mouse CD22 (mono-Fc fusion, 5 μg/mL) was injected on the active flow cell (2) for 90 seconds at 5 μL/min, yielding about 210 RU of captured constructs.
(§3) Binding experiments of Siglec-ligand conjugated proteins were performed on the surfaces prepared above in HBS-EP+ (10 mM HEPES, 150 mM NaCl, 3 mM EDTA, 0.05% Tween-20, pH 7.5) as the running buffer. Conjugates were serially diluted 1:1 in running buffer from 1 μM to 31.25 nM and injected over both the reference and active flow cells for 90 seconds at 30 μL/min. The conjugates were then allowed to dissociate from the surface for 300 seconds. No regeneration was required as the conjugates completely dissociated from the surface after 30 seconds.

[3] = molecular target: T2, mouse CD22 (Mus musculus, UniProt P35329); assay: SPR binding of synthetic Siglec ligands to mouse CD22 ectodomain (Biacore 8K+); settings: for Kd: SPR, alkyne-terminating precursors of the PFP linkers, read-out: Mouse Siglec-2 Binding Affinity; for Mouse Siglec-2 Binding Affinity: grade in words for the conjugatable Siglec ligand-linker
T2 construct: synthetic Siglec ligands for recombinant human and mouse CD22 ectodomains
T2 sequence (P35329 22-708 limits assumed): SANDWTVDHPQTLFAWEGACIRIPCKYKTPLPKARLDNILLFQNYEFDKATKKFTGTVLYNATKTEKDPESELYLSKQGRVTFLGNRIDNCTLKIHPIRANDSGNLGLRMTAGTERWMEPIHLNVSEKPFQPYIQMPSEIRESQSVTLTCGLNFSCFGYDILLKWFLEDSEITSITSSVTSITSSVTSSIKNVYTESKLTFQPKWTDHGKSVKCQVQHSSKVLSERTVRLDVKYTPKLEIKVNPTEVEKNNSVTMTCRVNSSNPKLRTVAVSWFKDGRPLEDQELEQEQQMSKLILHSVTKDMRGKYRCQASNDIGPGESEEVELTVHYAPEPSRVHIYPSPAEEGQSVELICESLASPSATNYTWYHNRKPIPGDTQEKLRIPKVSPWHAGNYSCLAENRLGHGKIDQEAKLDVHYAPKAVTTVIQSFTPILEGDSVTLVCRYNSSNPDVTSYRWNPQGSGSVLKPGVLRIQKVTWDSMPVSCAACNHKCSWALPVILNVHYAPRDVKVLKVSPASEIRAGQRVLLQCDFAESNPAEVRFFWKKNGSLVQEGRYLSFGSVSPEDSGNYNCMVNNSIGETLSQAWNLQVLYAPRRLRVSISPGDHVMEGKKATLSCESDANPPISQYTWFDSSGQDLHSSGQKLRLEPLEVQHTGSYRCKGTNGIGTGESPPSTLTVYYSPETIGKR
Experimental: as §1, §2, §3

T1 sequence (P20273 20-687 limits assumed): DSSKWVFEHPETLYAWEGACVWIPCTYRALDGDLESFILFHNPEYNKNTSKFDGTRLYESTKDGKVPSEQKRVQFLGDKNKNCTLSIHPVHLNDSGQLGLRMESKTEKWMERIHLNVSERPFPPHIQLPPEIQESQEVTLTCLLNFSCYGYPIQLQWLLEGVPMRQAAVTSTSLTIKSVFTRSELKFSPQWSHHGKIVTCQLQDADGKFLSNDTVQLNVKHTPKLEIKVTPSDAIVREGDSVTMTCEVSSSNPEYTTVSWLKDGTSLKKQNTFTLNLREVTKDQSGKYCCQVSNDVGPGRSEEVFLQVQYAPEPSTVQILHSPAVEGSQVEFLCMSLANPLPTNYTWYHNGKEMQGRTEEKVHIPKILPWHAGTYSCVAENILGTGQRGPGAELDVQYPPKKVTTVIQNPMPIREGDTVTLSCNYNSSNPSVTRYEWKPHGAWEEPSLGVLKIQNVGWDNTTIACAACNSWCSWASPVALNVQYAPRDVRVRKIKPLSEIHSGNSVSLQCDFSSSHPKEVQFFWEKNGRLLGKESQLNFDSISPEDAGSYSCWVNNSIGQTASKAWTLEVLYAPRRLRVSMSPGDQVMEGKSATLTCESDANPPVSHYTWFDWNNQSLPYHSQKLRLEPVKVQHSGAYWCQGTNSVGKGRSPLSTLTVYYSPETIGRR

Compound | IC50 [1] [µM] | Kd [2] [µM] | Kd [3] [µM] | Human Siglec-2 Binding Affinity [2] | Mouse Siglec-2 Binding Affinity [3]
CO[C@]1(C(=O)O)CC(O)[C@@H](NC(C)=O)C([C@H](O)[C@H](O)CNC(=O)c2ccc(-c3ccccc3)cc2)O1 (some centres unmarked) | 4 |  |  |  | 
O=C(Cc1ccc(-c2ccc(O)cc2)cc1)NC[C@@H](O)C(O)C1O[C@@](OCc2cccc(Cl)c2Cl)(C(=O)O)CC(O)[C@H]1NS(=O)(=O)c1ccccc1[N+](=O)[O-] (some centres unmarked) | 0.06 |  |  |  | 
CO[C@]1(C(=O)O)CC(NS(=O)(=O)c2ccc(C)cc2)[C@@H](NC(C)=O)C([C@H](O)[C@H](O)CNC(=O)c2ccc(-c3ccccc3)cc2)O1 (some centres unmarked) | 0.15 |  |  |  | 
C#CCOCCOCCO[C@]1(C(=O)O)C[C@H](O)[C@@H](NC(=O)CO)[C@H]([C@H](O)[C@H](O)CNC(=O)Cc2ccc(-c3ccccc3)cc2)O1 [Cpd. No. 26463, (2R,4S,5R,6R)-6-((1R,2R)-3-(2-([1,1′-biphenyl]-4-yl)acetamido)-1,2-dihydroxypropyl)-4-hydroxy-5-(2-hydroxyacetamido)-2-(2-(2-(prop-2-yn-1-yloxy)ethoxy)ethoxy)tetrahydro-2H-pyran-2-carboxylic acid] |  | 1.3 | 9.6 |  | 
O=C(CCOCCOCCn1cc(COCCOCCO[C@]2(C(=O)O)C[C@H](O)[C@@H](NC(=O)CO)[C@H]([C@H](O)[C@H](O)CNC(=O)Cc3ccc(-c4ccccc4)cc3)O2)nn1)NCCCC[C@H](NC(=O)CCCNC(=O)CCOCCOCCn1cc(COCCOCCO[C@]2(C(=O)O)C[C@H](O)[C@@H](NC(=O)CO)[C@H]([C@H](O)[C@H](O)CNC(=O)Cc3ccc(-c4ccccc4)cc3)O2)nn1)C(=O)NCCOCCOCCOCCOCCC(=O)Oc1c(F)c(F)c(F)c(F)c1F [Cpd. No. 26475] |  |  |  | Strong | Strong
O=C(CCOCCOCCn1cc(COCCOCCO[C@]2(C(=O)O)C[C@H](O)[C@@H](NC(=O)CO)[C@H]([C@H](O)[C@H](O)CNC(=O)Cc3ccc(-c4ccccc4)cc3)O2)nn1)NCCCC[C@H](NC(=O)CCCNC(=O)CCOCCOCCn1cc(COCCOCCO[C@]2(C(=O)O)C[C@H](O)[C@@H](NC(=O)CO)[C@H]([C@H](O)[C@H](O)CNC(=O)Cc3ccc(-c4ccccc4)cc3)O2)nn1)C(=O)N[C@@H](CCCCNC(=O)CCOCCOCCn1cc(COCCOCCO[C@]2(C(=O)O)C[C@H](O)[C@@H](NC(=O)CO)[C@H]([C@H](O)[C@H](O)CNC(=O)Cc3ccc(-c4ccccc4)cc3)O2)nn1)C(=O)NCCOCCOCCOCCOCCC(=O)Oc1c(F)c(F)c(F)c(F)c1F [Cpd. No. 26477] |  |  |  | Strong | Strong
O=C(CCOCCOCCOCCOCCn1cc(COCCOCCOCCOCCO)nn1)Oc1c(F)c(F)c(F)c(F)c1F [Cpd. No. 26530, perfluorophenyl 1-(4-(13-hydroxy-2,5,8,11-tetraoxatridecyl)-1H-1,2,3-triazol-1-yl)-3,6,9,12-tetraoxapentadecan-15-oate] |  |  |  | No Binding | No Binding
O=C(CCOCCOCCn1cc(COCCOCCOCCOCCO)nn1)NCCCC[C@@H](NC(=O)CCCNC(=O)CCOCCOCCn1cc(COCCOCCOCCOCCO)nn1)C(=O)NCCOCCOCCOCCOCCC(=O)Oc1c(F)c(F)c(F)c(F)c1F [Cpd. No. 26532, perfluorophenyl (R)-1-(4-(13-hydroxy-2,5,8,11-tetraoxatridecyl)-1H-1,2,3-triazol-1-yl)-16-(4-(3-(2-(2-(4-(13-hydroxy-2,5,8,11-tetraoxatridecyl)-1H-1,2,3-triazol-1-yl)ethoxy)ethoxy)propanamido)butyl)-9,14,17-trioxo-3,6,21,24,27,30-hexaoxa-10,15,18-triazatritriacontan-33-oate] |  |  |  | No Binding | No Binding
O=C(CCOCCOCCn1cc(COCCOCCOCCOCCO)nn1)NCCCC[C@@H](NC(=O)CCCNC(=O)CCOCCOCCn1cc(COCCOCCOCCOCCO)nn1)C(=O)N[C@H](CCCCNC(=O)CCOCCOCCn1cc(COCCOCCOCCOCCO)nn1)C(=O)NCCOCCOCCOCCOCCC(=O)Oc1c(F)c(F)c(F)c(F)c1F [Cpd. No. 26534, perfluorophenyl (16R,19R)-1-(4-(13-hydroxy-2,5,8,11-tetraoxatridecyl)-1H-1,2,3-triazol-1-yl)-16,19-bis(4-(3-(2-(2-(4-(13-hydroxy-2,5,8,11-tetraoxatridecyl)-1H-1,2,3-triazol-1-yl)ethoxy)ethoxy)propanamido)butyl)-9,14,17,20-tetraoxo-3,6,24,27,30,33-hexaoxa-10,15,18,21-tetraazahexatriacontan-36-oate] |  |  |  | No Binding | No Binding
C#CCOCCOCCO[C@]1(C(=O)O)C[C@H](O)[C@@H](NC(=O)CO)[C@H]([C@H](O)[C@H](O)CO)O1 [Cpd. No. 26591, (2R,4S,5R,6R)-4-hydroxy-5-(2-hydroxyacetamido)-2-(2-(2-(prop-2-yn-1-yloxy)ethoxy)ethoxy)-6-((1R,2R)-1,2,3-trihydroxypropyl)tetrahydro-2H-pyran-2-carboxylic acid] |  | > 450 | > 1000 |  | 
O=C(CO)N[C@H]1[C@H]([C@H](O)[C@H](O)CO)O[C@@](OCCOCCOCc2cn(CCOCCOCCOCCOCCC(=O)Oc3c(F)c(F)c(F)c(F)c3F)nn2)(C(=O)O)C[C@@H]1O [Cpd. No. 26614, (2R,4S,5R,6R)-4-hydroxy-5-(2-hydroxyacetamido)-2-(2-(2-((1-(15-oxo-15-(perfluorophenoxy)-3,6,9,12-tetraoxapentadecyl)-1H-1,2,3-triazol-4-yl)methoxy)ethoxy)ethoxy)-6-((1R,2R)-1,2,3-trihydroxypropyl)tetrahydro-2H-pyran-2-carboxylic acid] |  |  |  | Weak | Weak
O=C(CCOCCOCCn1cc(COCCOCCO[C@]2(C(=O)O)C[C@H](O)[C@@H](NC(=O)CO)[C@H]([C@H](O)[C@H](O)CO)O2)nn1)NCCCC[C@H](NC(=O)CCCNC(=O)CCOCCOCCn1cc(COCCOCCO[C@]2(C(=O)O)C[C@H](O)[C@@H](NC(=O)CO)[C@H]([C@H](O)[C@H](O)CO)O2)nn1)C(=O)NCCOCCOCCOCCOCCC(=O)Oc1c(F)c(F)c(F)c(F)c1F [Cpd. No. 26615] |  |  |  | Weak | Weak
O=C(CCOCCOCCn1cc(COCCOCCO[C@]2(C(=O)O)C[C@H](O)[C@@H](NC(=O)CO)[C@H]([C@H](O)[C@H](O)CO)O2)nn1)NCCCC[C@@H](CN[C@@H](CCCCNC(=O)CCOCCOCCn1cc(COCCOCCO[C@]2(C(=O)O)C[C@H](O)[C@@H](NC(=O)CO)[C@H]([C@H](O)[C@H](O)CO)O2)nn1)C(=O)NCCOCCOCCOCCOCCC(=O)Oc1c(F)c(F)c(F)c(F)c1F)NC(=O)CCCNCCCOCCOCCn1cc(COCCOCCO[C@]2(C(=O)O)C[C@H](O)[C@@H](NC(=O)CO)[C@H]([C@H](O)[C@H](O)CO)O2)nn1 [Cpd. No. 26616] |  |  |  | Weak | Weak
